Laboratory results as given in US20180371076A1, “MATERNAL TH17 CELLS AND PSYCHIATRIC DISORDERS” (New York University, priority 2017, published 2018).
“Also recorded” adds a separate entry of the source.

B1: recombinant IL-17a protein: Recombinant mouse IL-17a cytokine (R&D), injected into the fetal brain ventricle (protein, UniProt Q62386 26-158, looked up)
Interleukin-17A: AAIIPQSSACPNTEAKDFLQNVKVNLKVFNSLGAKVSSRRPSDYLNRSTSPWTLHRNEDPDRYPSVIWEAQCRHQRCVNAEGKLDHHMNSVLIQQEILVLKREPESCPFTFRVEKMLVGVGCTCVASIVRQAA

Experiments:
[1] = test system: offspring of pregnant mice (MIA mouse model); test: Marble burying test in adult offspring; type: in vivo
Excerpt: Maternal Immune Activation. Mice were mated overnight and females were checked daily for the presence of seminal plugs, noted as embryonic day 0.5 (E0.5). […] Each dam was returned to its cage and left undisturbed until the birth of its litter. All pups remained with the mother until weaning on postnatal day 21 (P21), at which time mice were group housed at maximum 5 per cage with same-sex littermates. […]
(§1) Marble burying test. […] At the end of a 15-min exploration period, mice were gently removed from the testing cages and the number of marbles buried was recorded. A marble burying index was scored as 1 for marbles covered >50% by bedding, 0.5 for ˜50% covered, or 0 for anything less. […]
as §1, with “test One week following the social approach task, male mice were acclimated for 0.5-1 h in separate clean holding cages.” for “test.”

IL-17a = IL-17a secretion by ex vivo cultured mononuclear cells (PMA/ionomycin); type: cell-based, mouse; conditions: vs PBS
Method: Cell preparation, Flow cytometry, ELISA. Embryos at each implantation site were dissected in ice-cold HBSS containing Ca^2+ and Mg^2+. Myometrium was first peeled off of the decidua and embryos were discarded. Dissected decidual and placental tissues were then minced and enzymatically dissociated in HBSS containing 0.28 Wunsch units (WU)/mL Liberase (Roche) and 30 μg/ml DNase I (Roche) for 30 min at 37° C. with intermittent mixing. Digested tissues were washed in PBS containing 5 mM EDTA and 5% fetal bovine serum and then incubated again in the same buffer for 15 min at 37° C. prior to filtration through a cell strainer. After separation on a discontinuous 40% & 80% Percoll gradient, the mononuclear cell fraction was treated with ACK lysis buffer (Lonza). Mononuclear cells (1×10^6 cells/mL) were stimulated with phorbol 12-myristate 13-acetate (PMA, 50 ng/mL; Sigma), ionomycin (500 ng/mL; Sigma) in T cell media: RPMI 1640 (Invitrogen) supplemented with 10% (v/v) heat-inactivated FBS (Hyclone), 50 U penicillin-streptomycin (Invitrogen), 2 mM glutamine, and 50 μM β-mercaptoethanol. Cell culture supernatant was used for ELISA analyses. For flow cytometry, cells were incubated for 5 h with PMA, ionomycin and GolgiStop (BD). […] For ELISA with sera and placenta/decidua extract, IL-6 (Ebioscience), IL-17a (Biolgened), and IL-10 (BD) were measured according to the manufacturer's protocol. […]

Row | Molecule | marble burying in adult offspring ([1]; poly(I:C)-injected vs PBS-injected mothers) | IL-17a secretion by placenta/decidua-associated mononuclear cells (IL-17a; cells from poly(I:C)-treated dams, ex vivo PMA and ionomycin) | IL-17a secretion by small intestine mononuclear cells (IL-17a; cells from poly(I:C)-treated pregnant dams) | marble burying behavior ([1]; intra-ventricular injection at E14.5, compared with sham injection)
1 | poly(I:C) | enhanced marble burying | increased IL-17a secretion; also recorded: enhanced secretion of IL-17a | did not exhibit higher levels of IL-17a secretion; also recorded: did not secrete more IL-17a | 
2 | B1 |  |  |  | increased marble burying behavior
